According to the NIST ThermoML archive (doi:10.1021/je301279x):

What was measured:
[1] = Drop volume
[2] = xn = mol fraction of the nth substance listed; conditions: for surface tension liquid-gas: Drop volume; for mass density: 800 kPa, Liquid, Vibrating tube method

NCCO [2-aminoethan-1-ol]
[1]
Conditions	surface tension liquid-gas [mN/m]
293.15 K	48.48
303.15 K	47.64
313.15 K	46.88

NCCO [2-aminoethan-1-ol] + O
[2]
Conditions	mass density, 303.15 K [kg/m3]	mass density, 313.15 K [kg/m3]	mass density, 323.15 K [kg/m3]	mass density, 333.15 K [kg/m3]	surface tension liquid-gas, 303.15 K [mN/m]	surface tension liquid-gas, 313.15 K [mN/m]	surface tension liquid-gas, 323.15 K [mN/m]	surface tension liquid-gas, 333.15 K [mN/m]
x1 = 0.0687	1003.6	999.4	994.6	989.1	66.7	65.2	63.6	61.6
x1 = 0.1122	1008.2	1003.3	998.1	992.3	63.7	62.4	61	59.5
x1 = 0.1643	1013.3	1007.8	1002.1	995.7	61.5	59.8	58.4	57
x1 = 0.2277	1017.8	1011.8	1005.4	998.7	59.6	58.1	56.5	55.1
x1 = 0.3067	1021.3	1014.6	1007.8	1000.6	57.4	56.1	55	53.6
x1 = 0.4076	1022.6	1015.5	1008.2	1000.6	54.5	53.6	52.5	51.2

O [water]
[1]
Conditions	surface tension liquid-gas [mN/m]
293.15 K	72.56
303.15 K	70.9
313.15 K	69.81
323.15 K	67.72
